Literature values as cited in patent EP1550371A2, “Pesticidal compositions comprising an oxathiin and triazole fungicides” (Tovarystvo z obmegenoyu vidpovidalnistyu "Prezence", priority 2003, dated 2005).

Assays:
[1] = at 25 °C
[2] = test system: rats; conditions: in rats
[3] = test system: rabbits; conditions: in rabbits
[4] = test system: mice; conditions: in mice
[5] = test system: rats; conditions: in rats; remark: listed apart in the source
[6] = test system: powdery mildew and rust; conditions: in experiments
[7] = test system: quails; conditions: in quails

CC1=C(C(=O)Nc2ccccc2)SCCO1 [Carboxin, 5,6-dihydro-2-methyl-1,4-oxathiin-3-carboxanyl]
Solubility in acetone [1]: 60%
Solubility in dimethylsulfoxide [1]: 150%
Solubility in ethyl alcohol [1]: 21%
Solubility in gasoline [1]: 15%
Solubility in methyl alcohol [1]: 21%
Solubility in water [1]: 0.017%
oral LD50 [2]: 3800 mg/kg
skin-resorptive LD50 [3]: above 8 g/kg

CC(C)(C)C(O)(CCc1ccc(Cl)cc1)Cn1cncn1 (stereo not shown) [Tebuconazol, RS-1-(4-chlorophenyl)-4,4-dimethyl-3-(1H-1,2,4-triazol-1-ilmethyl) pentan-3-ol]
oral LD50 [2]: 3900 to 5000 mg/kg
oral LD50 [4]: 1600 to 3900 mg/kg
skin-resorbtive toxicity [5]: above 5 g/kg

CC(C)(C)C(O)C(Oc1ccc(Cl)cc1)n1cncn1 (stereo not shown) [Triadimenol]
Protective systemic action against powdery mildew and rust [6]: 4 to 8 days
oral LD50 [2]: 700 to 1500 mg/kg
oral LD50 [4]: 1300 mg/kg
oral LD50 [7]: 10000 mg/kg
skin-resorbtive toxicity [5]: above 5 g/kg
